Tested on: IgG from human donors (anti-AAV antibodies)
Test: Screen for anti-AAV antibodies in human sera, 2452 linear 15-amino-acid AAV peptides on microarrays (Table 1)
Format: binding
Design: key to group I: X: the deduplicated aggregate of the respective top 10 peptide hits for each donor was compiled and designated as group I; key to group II: X: the deduplicated aggregate of the respective top 25 peptide hits for each donor was compiled and designated as group II; key to group III: X: the deduplicated aggregate of the respective top 50 peptide hits for each donor was compiled and designated as group III
Details: for group I: membership in deduplicated aggregate of top 10 peptide hits for each donor
Experimental: 2452 linear peptides derived from the sequences of 16 different AAVs and with a sequence length of 15 amino-acids each were synthesized.
Samples obtained from human donors were screened for antibodies against these AAV-derived peptides immobilized on microarrays. To this end, IgG was prepared from blood obtained from the human donors by protein G purification. Each IgG sample was incubated with the peptide microarrays and Ig binding signals were detected by fluorescence. All antibody binding signals to the peptides on the arrays were background subtracted and ranked for each sample and a deduplicated aggregate of the respective top 250 peptide hits for each donor with the corresponding protein sequence of origin (as obtained from UniProt or other sources) was compiled (designated as group IV). Further, the deduplicated aggregate of the respective top 50 peptide hits for each donor was compiled and designated as group III. Further, the deduplicated aggregate of the respective top 25 peptide hits for each donor was compiled and designated as group II. Finally, the deduplicated aggregate of the respective top 10 peptide hits for each donor was compiled and designated as group I.
Altogether, group I contains 110 distinct peptide hits (assigned to the corresponding AAV vectors in Table 1), group II contains 289 distinct peptide hits, group III contains 428 distinct peptide hits and group IV contains 1271 distinct peptide hits. Evidently, group I is a subset of group II which in turn is a subset of group III which in turn is a subset of group IV. Groups I-IV correspond to the top 4.4%, […], 17.5% and 51.8%, respectively, of all peptides screened.

[1] = X = peptide belongs to the deduplicated aggregate of the top 50 peptide hits for each donor, linear 15-amino-acid AAV peptides, IgG binding by fluorescence
[2] = human donor IgG binding to linear 15-amino-acid AAV peptides on microarray, fluorescence
[3] = membership in deduplicated aggregate of top 25 peptide hits for each donor, human donor IgG binding to linear 15-amino-acid AAV peptides on microarray, fluorescence
[4] = membership in deduplicated aggregate of top 50 peptide hits for each donor, human donor IgG binding to linear 15-amino-acid AAV peptides on microarray, fluorescence
[5] = X = peptide belongs to the deduplicated aggregate of the top 25 peptide hits for each donor, linear 15-amino-acid AAV peptides, IgG binding by fluorescence
[6] = X = peptide in the deduplicated aggregate of the top 50 peptide hits for each donor (top 17.5% of all peptides screened), linear 15-amino-acid AAV peptides on microarrays, human donor IgG, fluorescence

Q: How did the “group III” value [1] turn out when “347 (AVNLQSSSTDPATGD; REGION 1..15: note = peptide derived from viral capsid protein) [compound 347]” was run?
A: X

Q: Which results are given for “DKDKFFPMSGVMIF (REGION 1..14: note = peptide derived from viral capsid protein) [SEQ ID NO: 1933]”?
A: group I [2]: X; group II [3]: X; group III [4]: X

Q: “EEIKTTNPVATEQY (REGION 1..14: note = peptide derived from viral capsid protein) [SEQ ID NO: 1945]” was tested. Which “group I” value [2] did it give?
A: X

Q: What about the “group II” value [3] of the same substance?
A: X

Q: What about the “group III” value [4] of the same substance?
A: X

Q: “286 (VLEPFGLVEEGAKTA; REGION 1..15: note = peptide derived from viral capsid protein) [compound 286]” was tested. Which “group II” value [5] did it give?
A: X

Q: And the “group III” value [1]?
A: X

Q: With “329 (DADSVPDPQPLGQPP; REGION 1..15: note = peptide derived from viral capsid protein) [compound 329]” as the substance, how does the “group III” value [1] read?
A: X

Q: Which “group III” value [1] does the source give for “326 (PVATEQYGSVSTNLQ; REGION 1..15: note = peptide derived from viral capsid protein) [compound 326]” here?
A: X

Q: With “295 (DNPYLRYHADAEFQE; REGION 1..15: note = peptide derived from viral capsid protein) [compound 295]” as the substance, how does the “group III” value [1] read?
A: X

Q: Which “group I” value [2] does the source give for SGGSTNDNTYFGYS [SEQ ID NO: 1965] here?
A: X

Q: And the “group II” value [3]?
A: X

Q: And the “group III” value [4]?
A: X

Q: Which results are given for “DEEEIKATNPVATE (REGION 1..14: note = peptide derived from viral capsid protein) [SEQ ID NO: 1932]”?
A: group I [2]: X; group II [3]: X; group III [4]: X

Q: “316 (EPVKTAPGKKRPVEH; REGION 1..15: note = peptide derived from viral capsid protein) [compound 316]” was tested. Which “group III” value [1] did it give?
A: X

Q: With “281 (SKPSTSSDAEAGPSG; REGION 1..15: note = peptide derived from viral capsid protein) [compound 281]” as the substance, how does the “group II” value [5] read?
A: X

Q: What about the “group III” value [1] of the same substance?
A: X

Q: How did the “group I” value [2] turn out when NPGVAMATHKDDEE [SEQ ID NO: 1957] was run?
A: X

Q: And the “group II” value [3]?
A: X

Q: What about the “group III” value [4] of the same substance?
A: X

Q: With “338 (PLGLVEEPVKTAPGK; REGION 1..15: note = peptide derived from viral capsid protein) [compound 338]” as the substance, how does the “group III” value [1] read?
A: X

Q: With “339 (GNNFTFSYTFEDVPF; REGION 1..15: note = peptide derived from viral capsid protein) [compound 339]” as the substance, how does the “group III” value [1] read?
A: X

Q: How did the “group III” value [1] turn out when “370 (FITQYSTGQVSVEIE; REGION 1..15: note = peptide derived from viral capsid protein) [compound 370]” was run?
A: X

Q: For “447 (YNNHLYKQISNGTSG; REGION 1..15: note = peptide derived from viral capsid protein) [compound 447]”, which “group III” value [6] is on record?
A: X

Q: With “312 (NEADAAALEHDKAYD; REGION 1..15: note = peptide derived from viral capsid protein) [compound 312]” as the substance, how does the “group III” value [1] read?
A: X

Q: “296 (NTPVPADPPTTFNQA; REGION 1..15: note = peptide derived from viral capsid protein) [compound 296]” was tested. Which “group III” value [1] did it give?
A: X

Q: Which results are given for “SEPRPIGTRYLTRN (REGION 1..14: note = peptide derived from viral capsid protein) [SEQ ID NO: 1964]”?
A: group I [2]: X; group II [3]: X; group III [4]: X

Q: Which “group III” value [6] does the source give for “479 (DSTTTIANNLTSTVQ; REGION 1..15: note = peptide derived from viral capsid protein) [compound 479]” here?
A: X

Q: Which “group III” value [1] does the source give for “346 (TVAVNLQSSSTDPAT; REGION 1..15: note = peptide derived from viral capsid protein) [compound 346]” here?
A: X

Q: How did the “group III” value [1] turn out when “311 (QGVLPGMVWQDRDVY; REGION 1..15: note = peptide derived from viral capsid protein) [compound 311]” was run?
A: X

Q: For “300 (TFNQAKLASFITQYS; REGION 1..15: note = peptide derived from viral capsid protein) [compound 300]”, which “group III” value [1] is on record?
A: X

Q: “350 (TQYSTGQVSVEIEWE; REGION 1..15: note = peptide derived from viral capsid protein) [compound 350]” was tested. Which “group III” value [1] did it give?
A: X

Q: For “TESVPDPQPIGEPP (REGION 1..14: note = peptide derived from viral capsid protein) [SEQ ID NO: 1929]”, which “group I” value [2] is on record?
A: X

Q: And the “group II” value [3]?
A: X

Q: And the “group III” value [4]?
A: X

Q: “292 (HDDEERFFPSSGVLM; REGION 1..15: note = peptide derived from viral capsid protein) [compound 292]” was tested. Which “group III” value [1] did it give?
A: X

Q: How did the “group III” value [1] turn out when “349 (GSQAVGRSSFYCLEY; REGION 1..15: note = peptide derived from viral capsid protein) [compound 349]” was run?
A: X

Q: Which “group III” value [1] does the source give for “335 (VKEVTQNDGTTTIAN; REGION 1..15: note = peptide derived from viral capsid protein) [compound 335]” here?
A: X

Q: With “359 (SVPDPQPLGEPPATP; REGION 1..15: note = peptide derived from viral capsid protein) [compound 359]” as the substance, how does the “group III” value [1] read?
A: X

Q: For “434 (TNPVATEEYGIVADN; REGION 1..15: note = peptide derived from viral capsid protein) [compound 434]”, which “group III” value [6] is on record?
A: X

Q: How did the “group I” value [2] turn out when “APGKKRPVDQSPQE (REGION 1..14: note = peptide derived from viral capsid protein) [SEQ ID NO: 1918]” was run?
A: X

Q: What about the “group II” value [3] of the same substance?
A: X

Q: What about the “group III” value [4] of the same substance?
A: X

Q: For “363 (ASFITQYSTGQVSVE; REGION 1..15: note = peptide derived from viral capsid protein) [compound 363]”, which “group III” value [1] is on record?
A: X

Q: How did the “group III” value [6] turn out when “466 (ELKKENSKRWNPEIQ; REGION 1..15: note = peptide derived from viral capsid protein) [compound 466]” was run?
A: X

Q: For “356 (YSTGQVSVEIEWELQ; REGION 1..15: note = peptide derived from viral capsid protein) [compound 356]”, which “group III” value [1] is on record?
A: X

Q: With “334 (RQWWKLKPGPPPPKP; REGION 1..15: note = peptide derived from viral capsid protein) [compound 334]” as the substance, how does the “group III” value [1] read?
A: X

Q: For “318 (DKGEPVNEADAAALE; REGION 1..15: note = peptide derived from viral capsid protein) [compound 318]”, which “group III” value [1] is on record?
A: X

Q: How did the “group III” value [6] turn out when “438 (TTGGTANTQTLGFSQ; REGION 1..15: note = peptide derived from viral capsid protein) [compound 438]” was run?
A: X

Q: How did the “group III” value [1] turn out when “340 (FSYTFEDVPFHSSYA; REGION 1..15: note = peptide derived from viral capsid protein) [compound 340]” was run?
A: X

Q: How did the “group III” value [1] turn out when “322 (KSVNVDFTVDTNGVY; REGION 1..15: note = peptide derived from viral capsid protein) [compound 322]” was run?
A: X

Q: How did the “group III” value [6] turn out when “425 (ELQKENSKRWNPEIQ; REGION 1..15: note = peptide derived from viral capsid protein) [compound 425]” was run?
A: X

Q: How did the “group III” value [6] turn out when “470 (ANNLTSTVQVFTDDD; REGION 1..15: note = peptide derived from viral capsid protein) [compound 470]” was run?
A: X

Q: With YYKSTNVDFAVNTE [SEQ ID NO: 1916] as the substance, how does the “group I” value [2] read?
A: X

Q: What about the “group II” value [3] of the same substance?
A: X

Q: What about the “group III” value [4] of the same substance?
A: X

Q: “DKAYDQQLQAGDNP (REGION 1..14: note = peptide derived from viral capsid protein) [SEQ ID NO: 1928]” was tested. Which “group I” value [2] did it give?
A: X

Q: And the “group II” value [3]?
A: X

Q: What about the “group III” value [4] of the same substance?
A: X

Q: With TGDSESVPDPQPIG [SEQ ID NO: 1967] as the substance, how does the “group I” value [2] read?
A: X

Q: What about the “group II” value [3] of the same substance?
A: X

Q: What about the “group III” value [4] of the same substance?
A: X

Q: With “337 (ADNNEGADGVGNSSG; REGION 1..15: note = peptide derived from viral capsid protein) [compound 337]” as the substance, how does the “group III” value [1] read?
A: X

Q: For “EYQLPYVLGSAHQG (REGION 1..14: note = peptide derived from viral capsid protein) [SEQ ID NO: 1948]”, which “group I” value [2] is on record?
A: X

Q: What about the “group II” value [3] of the same substance?
A: X

Q: What about the “group III” value [4] of the same substance?
A: X

From patent US20250213707A1, “COMPOUND FOR INCREASING EFFICACY OF ONCOLYTIC VIRUSES” (ABLEVIA BIOTECH GMBH, priority 2022, published 2025)
